Test results as given in the supplement of paper PMC10307832.

Key:
Assay in all cases: relative viability (nuclei count vs DMSO), 5 days (fraction); higher = more cells survive
Elesclomol + Alpelisib = compound: CN(NC(=O)CC(=O)NN(C)C(=S)c1ccccc1)C(=S)c1ccccc1 [Elesclomol] + Cc1nc(NC(=O)N2CCC[C@H]2C(N)=O)sc1-c1ccnc(C(C)(C)C(F)(F)F)c1 [Alpelisib] (partner 2 µM)
In short: (§1)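 Lung cancer cell lines were seeded in 1536-well plates and dosed by pin tool the next day, with either a single drug or a fixed anchor-drug dose combined with five library-drug doses (not always all listed) spaced in √10 steps. Five days later, one step fixed the cells and stained their nuclei (final 0.05% Triton X-100, 1% formaldehyde, 1 ug/ml Hoechst), and nuclei were counted on 4× images. Relative viability is the nuclei count in treated wells divided by the count in vehicle wells, and each value is the median of duplicate plates.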

Elesclomol + Pictilisib = compound: CN(NC(=O)CC(=O)NN(C)C(=S)c1ccccc1)C(=S)c1ccccc1 [Elesclomol] + CS(=O)(=O)N1CCN(Cc2cc3nc(-c4cccc5[nH]ncc45)nc(N4CCOCC4)c3s2)CC1 [Pictilisib] (partner 1 µM)
In short: as §1

Elesclomol + Lapatinib = compound: CN(NC(=O)CC(=O)NN(C)C(=S)c1ccccc1)C(=S)c1ccccc1 [Elesclomol] + CS(=O)(=O)CCNCc1ccc(-c2ccc3ncnc(Nc4ccc(OCc5cccc(F)c5)c(Cl)c4)c3c2)o1 [Lapatinib] (partner 2 µM)
In short: as §1

Elesclomol + Phenformin = compound: CN(NC(=O)CC(=O)NN(C)C(=S)c1ccccc1)C(=S)c1ccccc1 [Elesclomol] + N=C(N)NC(=N)NCCc1ccccc1 [Phenformin] (partner 250 µM)
In short: as §1

Elesclomol + Dasatinib = compound: CN(NC(=O)CC(=O)NN(C)C(=S)c1ccccc1)C(=S)c1ccccc1 [Elesclomol] + Cc1nc(Nc2ncc(C(=O)Nc3c(C)cccc3Cl)s2)cc(N2CCN(CCO)CC2)n1 [Dasatinib] (partner 0.075 µM)
In short: as §1

| Cell Line | relative viability (Elesclomol + Alpelisib; first compound 0.003162 µM) | relative viability (Elesclomol + Alpelisib; first compound 0.01 µM) | relative viability (Elesclomol + Alpelisib; first compound 0.03162 µM) | relative viability (Elesclomol + Alpelisib; first compound 0.1 µM) | relative viability (Elesclomol + Pictilisib; first compound 0.003162 µM) | relative viability (Elesclomol + Pictilisib; first compound 0.01 µM) | relative viability (Elesclomol + Pictilisib; first compound 0.03162 µM) | relative viability (Elesclomol + Pictilisib; first compound 0.1 µM) | relative viability (Elesclomol + Lapatinib; first compound 0.003162 µM) | relative viability (Elesclomol + Lapatinib; first compound 0.01 µM) | relative viability (Elesclomol + Lapatinib; first compound 0.03162 µM) | relative viability (Elesclomol + Lapatinib; first compound 0.1 µM) | relative viability (Elesclomol + Phenformin; first compound 0.003162 µM) | relative viability (Elesclomol + Phenformin; first compound 0.01 µM) | relative viability (Elesclomol + Phenformin; first compound 0.03162 µM) | relative viability (Elesclomol + Phenformin; first compound 0.1 µM) | relative viability (Elesclomol + Dasatinib; first compound 0.003162 µM) | relative viability (Elesclomol + Dasatinib; first compound 0.01 µM) | relative viability (Elesclomol + Dasatinib; first compound 0.03162 µM) | relative viability (Elesclomol + Dasatinib; first compound 0.1 µM) |
| --- | --- | --- | --- | --- | --- | --- | --- | --- | --- | --- | --- | --- | --- | --- | --- | --- | --- | --- | --- | --- |
| NCI-H2170 | 0.808 | 0.722 | 0.708 | 0.403 | 0.328 | 0.266 | 0.298 | 0.193 | 0.273 | 0.285 | 0.259 | 0.257 | 0.39 | 0.402 | 0.376 | 0.341 | 0.546 | 0.539 | 0.484 | 0.43 |
| NCI-H2228 | 0.569 | 0.5 | 0.198 | 0.0389 | 0.395 | 0.352 | 0.132 | 0.0486 | 0.953 | 0.66 | 0.33 | 0.103 | 0.294 | 0.188 | 0.159 | 0.0554 | 0.545 | 0.269 | 0.2 | 0.039 |
| NCI-H2347 | 1.04 | 0.928 | 0.955 | 0.513 | 0.543 | 0.689 | 0.629 | 0.396 | 0.876 | 0.776 | 0.902 | 0.761 | 0.426 | 0.231 | 0.294 | 0.281 | 0.29 | 0.373 | 0.287 | 0.185 |
| NCI-H2405 | 0.783 | 0.312 | 0.223 | 0.224 | 0.472 | 0.249 | 0.228 | 0.236 | 1.16 | 0.292 | 0.291 | 0.289 | 0.39 | 0.335 | 0.335 | 0.366 | 0.227 | 0.231 | 0.222 | 0.203 |
| NCI-H3122 | 0.706 | 0.759 | 0.758 | 0.159 | 0.567 | 0.594 | 0.594 | 0.304 | 0.999 | 0.989 | 0.978 | 0.434 | 0.325 | 0.274 | 0.261 | 0.219 | 0.836 | 0.947 | 0.587 | 0.0775 |
| PC-3 [JPC-3] | 0.981 | 0.958 | 1.04 | 0.778 | 0.738 | 0.604 | 0.878 | 0.581 | 0.43 | 0.386 | 0.519 | 0.405 | 0.474 | 0.474 | 0.496 | 0.401 | 0.913 | 0.914 | 1.05 | 0.647 |
| PC-14 | 0.913 | 0.558 | 0.0506 | 0.0344 | 0.417 | 0.0984 | 0.05 | 0.0156 | 0.337 | 0.295 | 0.228 | 0.0843 | 0.404 | 0.16 | 0.0586 | 0.023 | 0.0703 | 0.0327 | 0.0099 | 0.0111 |
| RERF-LC-KJ | 0.702 | 0.352 | 0.252 | 0.275 | 0.408 | 0.19 | 0.243 | 0.234 | 0.909 | 0.756 | 0.398 | 0.299 | 0.341 | 0.347 | 0.267 | 0.218 | 0.37 | 0.326 | 0.255 | 0.157 |
| SK-LU-1 | 0.987 | 0.674 | 0.294 | 0.1 | 0.55 | 0.469 | 0.319 | 0.178 | 0.908 | 0.518 | 0.333 | 0.105 | 0.643 | 0.287 | 0.305 | 0.161 | 0.199 | 0.197 | 0.161 | 0.0738 |
| SK-MES-1 | 0.854 | 0.502 | 0.679 | 0.279 | 0.402 | 0.312 | 0.238 | 0.199 | 0.563 | 0.446 | 0.429 | 0.325 | 0.644 | 0.456 | 0.506 | 0.421 | 0.413 | 0.25 | 0.187 | 0.148 |
| SW 1573 | 0.728 | 0.211 | 0.143 | 0.0815 | 0.479 | 0.121 | 0.104 | 0.074 | 1.04 | 0.517 | 0.185 | 0.135 | 0.274 | 0.114 | 0.159 | 0.0405 | 0.192 | 0.094 | 0.043 | 0.0143 |
| UMC-11 | 0.949 | 0.931 | 0.488 | 0.363 | 0.827 | 0.67 | 0.561 | 0.44 | 0.952 | 0.837 | 0.505 | 0.328 | 0.312 | 0.343 | 0.328 | 0.31 | 0.439 | 0.423 | 0.374 | 0.235 |
